16 compounds from PubChem BioAssay AID2060904 (Molecular Pharmacology Branch, DTP, NCI, 2025) can be followed below.

Where “and” joins values, the source holds several entries; their conditions need not be identical. Equal values may be shown once.
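Further: spheroids exposed to compound for seven days before viability readout.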

The first assay concerns 349418-098-R-PDC complex spheroid viability. The experiment in a line: Anticancer human tumor 349418-098-R-PDC patient-derived lung adenocarcinoma cell line growth inhibition [RAS]. Particulars: compound 0.3 µM; stronger effect = lower value. The source says: RAS pathway inhibitors in Combinations in Complex Spheroids
A high-throughput screen of multi-cell type tumor spheroids was designed to identify active combinations of RAS pathway inhibitors and targeted small molecules. Complex spheroids include a stromal component modeled by human endothelial cells (HUVEC) and fibroblasts modeled by human mesenchymal stem cells (MSCs). The concentration ranges selected for each drug and investigational agent were based upon clinically achievable concentrations if the clinical Cmax of the agent was known.
Compounds. The drugs and investigational agents: abemaciclib (NSC768073), cobimetinib (NSC768068), divarasib (GDC6063, NSC841802), docetaxel (NSC628503), GDC-1971 (RLY-1971, NSC841576), gemcitabine (NSC613327), inavolisib (NSC800729), ipatasertib (NSC767898), KB-0742 (NSC834161), MRTX-1133 (NSC836407), osimertinib (NSC779217), RMC-4630 (NSC839698), RMC-6236 (NSC851965), RMC-6291 (NSC852671), Ro-3306 (NSC812927), sapanisertib (NSC764658), SN-38 (NSC673596), staurosporine (NSC755774), SY5609 (NSC837396), and tovorafenib (DAY101, NSC766906), were obtained from the National Cancer Institute (NCI) Developmental Therapeutics Program Chemical Repository. The FDA-approved anticancer drug set is available from the NCI Developmental Therapeutics Program. […] The stock solutions were prepared in dimethyl sulfoxide (DMSO, Sigma-Aldrich, St. Louis, MO, cat. D2650) at 800-fold the tested concentration and stored at -70 degrees C prior to their use. All drugs and investigational agents were tested over a range starting from a high concentration at or near the clinical Cmax and decreasing in half-log increments. If the clinical Cmax for an agent had not been determined, the highest concentration tested was 10 microM.
Cell Culture. All cells were maintained in an incubator at 37 degrees C and 5% CO2 with 95% humidity. The PDC lines were cultured according to standard operating procedures established by the NCI PDMR. All PDCs were thawed and cultured in Matrigel-coated flasks prepared with a working solution of 1X Ham's F-12 nutrient mix, without supplementation (Invitrogen, Waltham, MA, cat. 11765054), 100 U/mL penicillin-streptomycin (Invitrogen, cat. 15140122), and 2.5% Matrigel (Corning Inc., Corning, NY, cat. 354248) for the first three passages. The 362531-283-R-J2-PDC and 782815-120-R-J1-PDC lines were cultured in 6C/Colon 1B media, which includes advanced DMEM/F-12 (Thermo Fisher Scientific, cat. 12634028), 10 mM HEPES (Thermo Fisher Scientific, cat. 15630080), 1X GlutaMAX supplement (Thermo Fisher Scientific, cat. 35050061), 0.1 mg/mL primocin (InvivoGen, San Diego, CA, cat. ant-pm-2), 10% defined fetal bovine serum, heat inactivated (HyClone Laboratories Inc., Logan, UT, cat. SH30070.03HI), 50% L-WRN conditioned media (ATCC, cat. CRL-3276), 1.25 mM N-Acetyl-L-cysteine (Sigma-Aldrich, cat. A9165), 10 mM nicotinamide (Sigma-Aldrich, cat. N0636), 1X B-27 supplement (Thermo Fisher Scientific, cat. 17504044), 1X N-2 supplement (Thermo Fisher Scientific, cat. 17502048), 50 ng/mL human EGF (Thermo Fisher Scientific, cat. PHG0311), and 10 microM Y-27632 dihydrochloride (Tocris Bioscience, cat. 1254). The K12877-001-R-J1-PDC line was cultured in 6I media, which includes all 6C/Colon 1B media plus 10 ng/mL human FGF-10 (PeproTech, cat. 100-26), 1 ng/mL human FGF-2 (PeproTech, cat. 100-18B), 1 µM prostaglandin E2 (Tocris Bioscience, cat. 2296), […] hydrocortisone (Sigma-Aldrich, cat. H4001), and […] bovine insulin (Sigma-Aldrich, cat. I6634). The K86415-001-R-J1-PDC line was cultured in 6D media, which includes all 6C/Colon 1B media components minus the L-WRN conditioned media. The 485176-168-R4-J1-PDC was cultured in PANC media, which includes all 6C/Colon 1B media plus 100 ng/mL human FGF-10 (PeproTech, cat. 100-26), 500 nM SB-431542 (Selleckchem, cat. S1067), and 10 nM gastrin (Tocris Bioscience, cat. 3006). […]
On to `CCc1c2c(nc3ccc(O)cc13)-c1cc3c(c(=O)n1C2)COC(=O)[C@]3(O)CC`, for which the viability, T/C is 2.43% [middle of 4 runs].

Still in this assay, the particulars now being: compound 0.316 µM; stronger effect = lower value.
Consider `C=CC(=O)Nc1cc(Nc2nccc(-c3cn(C)c4ccccc34)n2)c(OC)cc1N(C)CCN(C)C`, for which the viability, T/C was 85.7% [middle of 4 runs].
As to `CC(=O)OC12COC1CC(O)C1(C)C(=O)C(O)C3=C(C)C(OC(=O)C(O)C(NC(=O)OC(C)(C)C)c4ccccc4)CC(O)(C(OC(=O)c4ccccc4)C21)C3(C)C` (stereo not drawn), the viability, T/C was 17.6% [middle of 4 runs].
For the compound `CC(Nc1ccc2c(c1)OCCn1cc(N3C(=O)OCC3C(F)F)nc1-2)C(N)=O` (stereo not drawn), the viability, T/C was 32% [middle of 4 runs].
For `CC1(O)CCCC1n1c(=O)c(C(F)F)cc2cnc(NC3CCN(S(C)(=O)=O)CC3)nc21` (stereo not drawn), the viability, T/C is 26.1% [middle of 4 runs].
Turning to `CCN1CCN(Cc2ccc(Nc3ncc(F)c(-c4cc(F)c5nc(C)n(C(C)C)c5c4)n3)nc2)CC1`, the viability, T/C is 23.5% [middle of 4 runs].
With `Cc1nc(N2CCC3(CC2)COC(C)C3N)c(CO)nc1Sc1ccnc(N)c1Cl` (stereo not drawn), the viability, T/C is 101% [middle of 4 runs].
With `Nc1ccn(C2OC(CO)C(O)C2(F)F)c(=O)n1` (stereo not drawn), the viability, T/C was 5.2% [middle of 4 runs].
`O=C(c1ccc(F)c(F)c1Nc1ccc(I)cc1F)N1CC(O)([C@@H]2CCCCN2)C1`: the viability, T/C is 7.62% [middle of 4 runs].

Staying with this assay, now noted: compound 1 µM; stronger effect = lower value.
Regarding `C=CC(=O)Nc1cc(Nc2nccc(-c3cn(C)c4ccccc34)n2)c(OC)cc1N(C)CCN(C)C`, the viability, T/C is 71.4% [middle of 4 runs].
Take `CC(=O)OC12COC1CC(O)C1(C)C(=O)C(O)C3=C(C)C(OC(=O)C(O)C(NC(=O)OC(C)(C)C)c4ccccc4)CC(O)(C(OC(=O)c4ccccc4)C21)C3(C)C` (stereo not drawn): the viability, T/C is 15.2% [middle of 4 runs].
In the case of `CC(Nc1ccc2c(c1)OCCn1cc(N3C(=O)OCC3C(F)F)nc1-2)C(N)=O` (stereo not drawn), the viability, T/C was 21.9% [middle of 4 runs].
Turning to `CC1(O)CCCC1n1c(=O)c(C(F)F)cc2cnc(NC3CCN(S(C)(=O)=O)CC3)nc21` (stereo not drawn), the viability, T/C was 22.1% [middle of 4 runs].
With `CCC(CC)c1cc(NC2CCC(N)C2)n2nccc2n1` (stereo not drawn), the viability, T/C was 41.9% [middle of 4 runs].
Turning to `CCN1CCN(Cc2ccc(Nc3ncc(F)c(-c4cc(F)c5nc(C)n(C(C)C)c5c4)n3)nc2)CC1`, the viability, T/C is 17.6% [middle of 4 runs].
Regarding `Nc1ccn(C2OC(CO)C(O)C2(F)F)c(=O)n1` (stereo not drawn), the viability, T/C is 5.11% [middle of 4 runs].
Consider `O=C(c1ccc(F)c(F)c1Nc1ccc(I)cc1F)N1CC(O)([C@@H]2CCCCN2)C1`, for which the viability, T/C is 6.03% [middle of 4 runs].

Still in this assay, the particulars now being: compound 3.16 µM; stronger effect = lower value.
As for `CC(=O)OC12COC1CC(O)C1(C)C(=O)C(O)C3=C(C)C(OC(=O)C(O)C(NC(=O)OC(C)(C)C)c4ccccc4)CC(O)(C(OC(=O)c4ccccc4)C21)C3(C)C` (stereo not drawn), the viability, T/C was 24.6% [middle of 4 runs].
`CC1(O)CCCC1n1c(=O)c(C(F)F)cc2cnc(NC3CCN(S(C)(=O)=O)CC3)nc21` (stereo not drawn): the viability, T/C was 19.5% [middle of 4 runs].
As for `CCC(CC)c1cc(NC2CCC(N)C2)n2nccc2n1` (stereo not drawn), the viability, T/C is 2.95% [middle of 4 runs].
With `Cc1nc(N2CCC3(CC2)COC(C)C3N)c(CO)nc1Sc1ccnc(N)c1Cl` (stereo not drawn), the viability, T/C is 100% [middle of 4 runs].
For `NC1c2ccccc2OC12CCN(c1cnc3c(N4CCCc5ncccc54)n[nH]c3n1)CC2` (stereo not drawn), the viability, T/C was 98.5% [middle of 4 runs].

The assay is the same for the next values; noted with them: compound 10 µM; stronger effect = lower value.
In the case of `C#Cc1c(F)ccc2cc(O)cc(-c3ncc4c(N5CC6CCC(C5)N6)nc(OCC56CCCN5CC(F)C6)nc4c3F)c12` (stereo not drawn), the viability, T/C was 71.8% [middle of 8 runs].
Regarding `CC(=O)OC12COC1CC(O)C1(C)C(=O)C(O)C3=C(C)C(OC(=O)C(O)C(NC(=O)OC(C)(C)C)c4ccccc4)CC(O)(C(OC(=O)c4ccccc4)C21)C3(C)C` (stereo not drawn), the viability, T/C is 25.8% [middle of 4 runs].
In the case of `CC(Nc1ccc2c(c1)OCCn1cc(N3C(=O)OCC3C(F)F)nc1-2)C(N)=O` (stereo not drawn), the viability, T/C is 14.1% [middle of 4 runs].
On the same count and under the same terms, next, `CC1(O)CCCC1n1c(=O)c(C(F)F)cc2cnc(NC3CCN(S(C)(=O)=O)CC3)nc21` (stereo not drawn): 2.67% [middle of 4 runs].
The same measure, in the same setting: for `CCC(CC)c1cc(NC2CCC(N)C2)n2nccc2n1` (stereo not drawn) the value was 2.61% [middle of 4 runs]; for `Cc1nc(N2CCC3(CC2)COC(C)C3N)c(CO)nc1Sc1ccnc(N)c1Cl` (stereo not drawn), 95.3% [middle of 4 runs].
On to `NC1c2ccccc2OC12CCN(c1cnc3c(N4CCCc5ncccc54)n[nH]c3n1)CC2` (stereo not drawn), for which the viability, T/C was 68.6% [middle of 4 runs].

The same assay, now with this note: compound alone; run of 05/20/2024.
For `CCn1c(-c2cc(N3CCN(C)CC3)cnc2C(C)OC)c2c3cc(ccc31)-c1csc(n1)CC(NC(=O)C1CC1C)C(=O)N1CCCC(N1)C(=O)OCC(C)(C)C2` (stereo not drawn), the concentration for half-maximal inhibition (IC50) is over 300 nM.
On to `CCn1c(-c2cccnc2C(C)OC)c2c3cc(ccc31)N1CCOC(CC(NC(=O)C(C(C)C)N(C)C(=O)C3(F)CCN(C(=O)C#CC(C)(C)N(C)C)CC3)C(=O)N3CCCC(N3)C(=O)OCC(C)(C)C2)C1` (stereo not drawn), for which the IC50 was over 300 nM.

The same assay, now with this note: compound alone; run of 06/10/2024.
For the compound `C#Cc1c(F)ccc2cc(O)cc(-c3ncc4c(N5CC6CCC(C5)N6)nc(OCC56CCCN5CC(F)C6)nc4c3F)c12` (stereo not drawn), the IC50 is over 10000 nM.

The same assay, now with this note: curve of compound.
Turning to `C=CC(=O)Nc1cc(Nc2nccc(-c3cn(C)c4ccccc34)n2)c(OC)cc1N(C)CCN(C)C`, the IC50 is over 1000 nM.
As for `CC(=O)OC12COC1CC(O)C1(C)C(=O)C(O)C3=C(C)C(OC(=O)C(O)C(NC(=O)OC(C)(C)C)c4ccccc4)CC(O)(C(OC(=O)c4ccccc4)C21)C3(C)C` (stereo not drawn), the IC50 was under 31.6 nM.
Take `CC(C)n1nc(-c2ccc3oc(N)nc3c2)c2c(N)ncnc21`: the concentration for half-maximal inhibition (IC50) was 3.6 nM [middle of 4 runs].
The same measure, in the same setting: next, `CC1(C)CCC(Nc2ncc(C(F)(F)F)c(-c3c[nH]c4c(P(C)(C)=O)c(C#N)ccc34)n2)CN1` (stereo not drawn): 1.47 nM and < 0.949 nM and 1.51 nM; `CC1(O)CCCC1n1c(=O)c(C(F)F)cc2cnc(NC3CCN(S(C)(=O)=O)CC3)nc21` (stereo not drawn): 87.8 nM [middle of 4 runs].
On to `CCC(CC)c1cc(NC2CCC(N)C2)n2nccc2n1` (stereo not drawn), for which the IC50 is 778 nM [middle of 4 runs].
As to `CCc1c2c(nc3ccc(O)cc13)-c1cc3c(c(=O)n1C2)COC(=O)[C@]3(O)CC`, the IC50 was 2.32 nM [middle of 4 runs].
As for `Cc1nc(N2CCC3(CC2)COC(C)C3N)c(CO)nc1Sc1ccnc(N)c1Cl` (stereo not drawn), the 50% inhibitory concentration (IC50) is over 10000 nM.
The same measure, in the same setting: for `NC1c2ccccc2OC12CCN(c1cnc3c(N4CCCc5ncccc54)n[nH]c3n1)CC2` (stereo not drawn) the value was over 10000 nM; for `Nc1ccn(C2OC(CO)C(O)C2(F)F)c(=O)n1` (stereo not drawn), under 3.16 nM; for `O=C(c1ccc(F)c(F)c1Nc1ccc(I)cc1F)N1CC(O)([C@@H]2CCCCN2)C1`, under 3.16 nM.
